Measurements taken from ChEMBL document CHEMBL1201862, “PubChem BioAssay data set” (2004).
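Step 1: Grow cells in 96-well plates. Step 2: Expose to compound for 48 hours at 5 concentrations. Step 3: Interpolate endpoints linearly; if unreached, use highest concentration. The concentration for 50% growth inhibition is given as GI50.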 Calls of active or inactive are those of the source. Rule as the data show it: active = GI50 up to about 1.1 µM and inactive = higher.

How the values were obtained:
Experiment in all cases: DTP human tumour cell line panel, 48 h
[1] = tested on: LOX IMVI
[2] = tested on: SK-OV-3
[3] = tested on: SNB-78
[4] = tested on: Malme-3M
[5] = tested on: OVCAR-5
[6] = tested on: ACHN
[7] = tested on: HL-60
[8] = tested on: DLD-1
[9] = tested on: EKVX
[10] = tested on: SK-MEL-2
[11] = tested on: KM12
[12] = tested on: SNB-19
[13] = tested on: NCI-H226
[14] = tested on: CAKI-1
[15] = tested on: OVCAR-3
[16] = tested on: U-251
[17] = tested on: TK-10
[18] = tested on: XF498
[19] = tested on: SK-MEL-5
[20] = tested on: UO-31
[21] = tested on: SK-MEL-28
[22] = tested on: 786-0
[23] = tested on: CCRF-CEM
[24] = tested on: M19-MEL
[25] = tested on: SNB-75
[26] = tested on: LXFL 529
[27] = tested on: HT-29
[28] = tested on: MOLT-4
[29] = tested on: HCT-116
[30] = tested on: SW-620
[31] = tested on: UACC-257
[32] = tested on: NCI-H522
[33] = tested on: SR
[34] = tested on: IGROV-1
[35] = tested on: HCT-15
[36] = tested on: HCC 2998
[37] = tested on: OVCAR-4
[38] = tested on: RPMI-8226
[39] = tested on: NCI-H23
[40] = tested on: COLO 205
[41] = tested on: A498
[42] = tested on: KM-20L2
[43] = tested on: DMS-273
[44] = tested on: A549
[45] = tested on: M14
[46] = tested on: SF-295
[47] = tested on: NCI-H460
[48] = tested on: HOP-92
[49] = tested on: RXF 393
[50] = tested on: OVCAR-8
[51] = tested on: HOP-62
[52] = tested on: UACC-62
[53] = tested on: SN12C
[54] = tested on: K562
[55] = tested on: SF-539
[56] = tested on: DMS-114
[57] = tested on: HOP-18
[58] = tested on: SF-268

SMILES: O=C(/C(=C/c1ccccc1)c1ccccc1)N1c2ccccc2CC1c1c[nH]c2ccccc12 (stereo unspecified)
- GI50 [1]: 21.6 µM (inactive)
- GI50 [2]: > 100 µM (inactive)
- GI50 [3]: 9.2 µM (inactive)
- GI50 [4]: 28.5 µM (inactive)
- GI50 [5]: 38.6 µM (inactive)
- GI50 [6]: 16.9 µM (inactive)
- GI50 [7]: 3.19 µM (inactive)
- GI50 [8]: 53.2 µM (inactive)
- GI50 [9]: 25.2 µM (inactive)
- GI50 [10]: 6.03 µM (inactive)
- GI50 [11]: 10.2 µM (inactive)
- GI50 [12]: 23.7 µM (inactive)
- GI50 [13]: 41.1 µM (inactive)
- GI50 [14]: 36.1 µM (inactive)
- GI50 [15]: 3.05 µM (inactive)
- GI50 [16]: 9.53 µM (inactive)
- GI50 [17]: 45.7 µM (inactive)
- GI50 [18]: 3.05 µM (inactive)
- GI50 [19]: 21.7 µM (inactive)
- GI50 [20]: 5.11 µM (inactive)
- GI50 [21]: > 100 µM (inactive)
- GI50 [22]: > 100 µM (inactive)
- GI50 [23]: 8.91 µM (inactive)
- GI50 [24]: 38.6 µM (inactive)
- GI50 [25]: > 100 µM (inactive)
- GI50 [26]: 8.3 µM (inactive)
- GI50 [27]: 76.4 µM (inactive)
- GI50 [28]: 3.33 µM (inactive)
- GI50 [29]: 5.51 µM (inactive)
- GI50 [30]: 59.2 µM (inactive)
- GI50 [31]: 54.5 µM (inactive)
- GI50 [32]: 7.8 µM (inactive)
- GI50 [33]: > 100 µM (inactive)
- GI50 [34]: > 100 µM (inactive)
- GI50 [35]: 7.76 µM
- GI50 [36]: > 100 µM (inactive)
- GI50 [37]: 37.8 µM (inactive)
- GI50 [38]: 15.6 µM (inactive)
- GI50 [39]: 15 µM (inactive)
- GI50 [40]: 6.27 µM (inactive)
- GI50 [41]: > 100 µM (inactive)
- GI50 [42]: 26.8 µM (inactive)
- GI50 [43]: 7.83 µM (inactive)
- GI50 [44]: 11 µM (inactive)
- GI50 [45]: 9.18 µM (inactive)
- GI50 [46]: 7.62 µM (inactive)
- GI50 [47]: 7.48 µM (inactive)
- GI50 [48]: 81.1 µM (inactive)
- GI50 [49]: 6.07 µM (inactive)
- GI50 [50]: > 100 µM (inactive)
- GI50 [51]: > 100 µM (inactive)
- GI50 [52]: > 100 µM (inactive)
- GI50 [53]: 22.2 µM (inactive)
- GI50 [54]: 5.05 µM (inactive)
- GI50 [55]: > 100 µM (inactive)
- GI50 [56]: 5.7 µM (inactive)

SMILES: [O-][S+]1c2ccccc2N=C(c2ccc(Cl)cc2)CC1c1cccs1 (stereo unspecified)
- GI50 [1]: 12.6 µM (inactive)
- GI50 [2]: 28.9 µM (inactive)
- GI50 [3]: 35 µM (inactive)
- GI50 [4]: 57.8 µM (inactive)
- GI50 [5]: 16.7 µM (inactive)
- GI50 [6]: 28.2 µM (inactive)
- GI50 [7]: 14.2 µM (inactive)
- GI50 [8]: 12.2 µM (inactive)
- GI50 [9]: 35.4 µM (inactive)
- GI50 [11]: 14.7 µM (inactive)
- GI50 [57]: 29.2 µM (inactive)
- GI50 [12]: 21.1 µM (inactive)
- GI50 [13]: 90.4 µM (inactive)
- GI50 [14]: 21.4 µM (inactive)
- GI50 [15]: 1.68 µM (inactive)
- GI50 [16]: 15.5 µM (inactive)
- GI50 [17]: 39.3 µM (inactive)
- GI50 [19]: 19 µM (inactive)
- GI50 [20]: 17.7 µM (inactive)
- GI50 [21]: 19.3 µM (inactive)
- GI50 [22]: 15 µM (inactive)
- GI50 [23]: 17.3 µM (inactive)
- GI50 [24]: 17.7 µM (inactive)
- GI50 [25]: 46.7 µM (inactive)
- GI50 [27]: 17.3 µM (inactive)
- GI50 [28]: 26 µM (inactive)
- GI50 [29]: 10.9 µM (inactive)
- GI50 [30]: 14.4 µM (inactive)
- GI50 [31]: 23.2 µM (inactive)
- GI50 [32]: 27.4 µM (inactive)
- GI50 [33]: 7.01 µM (inactive)
- GI50 [34]: 14.8 µM (inactive)
- GI50 [35]: 15.5 µM
- GI50 [36]: 16.3 µM (inactive)
- GI50 [37]: 11 µM (inactive)
- GI50 [38]: 17 µM (inactive)
- GI50 [39]: 23.8 µM (inactive)
- GI50 [40]: 20 µM (inactive)
- GI50 [41]: 97.1 µM (inactive)
- GI50 [42]: 20.9 µM (inactive)
- GI50 [43]: 14.6 µM (inactive)
- GI50 [44]: 32.4 µM (inactive)
- GI50 [45]: 15.5 µM (inactive)
- GI50 [46]: 16.6 µM (inactive)
- GI50 [47]: 36.8 µM (inactive)
- GI50 [48]: 19.7 µM (inactive)
- GI50 [49]: 14.4 µM (inactive)
- GI50 [50]: 17.8 µM (inactive)
- GI50 [51]: 79.3 µM (inactive)
- GI50 [52]: 15.7 µM (inactive)
- GI50 [53]: 19 µM (inactive)
- GI50 [54]: 9.25 µM (inactive)
- GI50 [55]: 16.7 µM (inactive)
- GI50 [56]: 14.6 µM (inactive)
- GI50 [58]: 29.2 µM (inactive)
